What was measured:
DOPA-oxydase = assay: Inhibition in the DOPA-oxydase + DOPA system; type: biochemical, champignons; conditions: concentrations inférieures a 10-^4M; figure 1
Description: D'autres essais ont été entrepris pour mesurer l'inhibition exercée par la DF-5HTP dans le système DOPA-oxydase + DOPA, par comparaison avec la désoxyfructosérotonine (DFS). Pour ce qui concerne l'inhibition de la DOPA-oxydase, on pourra se reporter a la methode de N.H. Horowitz, M. Fling et et C. Horn "Tyrosinase", dans Methods in Enzymology Vol. XVII- A, p. 615, Editors: Tabor and Tabor, Ac. Press, 1970.
L'effet de la désoxyfructo-sérotonine (DFS) sur les Mycobacteries de la lèpre est attribue a son effet inhibiteur sur la DOPA-oxydase de M. leprae. Une DOPA-oxydase semblable, isolée de champignons, est commercialisée (SIGMA) et a servi comme modèle afin de comparer l'effet inhibiteur de la DFS et du désoxyfructo-5-hydroxytryptophane sur cette DOPA-oxydase.
La figure 1 est un graphique dans lequel on a porté en abscisses la concentration de I'agent de traitement utilise et en ordonnées les valeurs de la coloration du milieu mesurée a 540 mµ, celles-ci étant en effet representatives de la concentration en substance capable de colorer le milieu. En presence d'un inhibiteur, la formation de la coloration est empêchée. Ainsi, plus les valeurs portées en ordonnées sont faibles, meilleure est I'inhibition procurée par le compose essayé.

M. Leprae = assay: Incorporation of 3H-DOPA by M. leprae in vitro; type: cell-based, Mycobacterium leprae; conditions: 6 h
Description: Le tableau 6 rassemble des résultats d'essai concernant l'activité du DF-5HTP sur l'incorporation de la DOPA dans les Mycobacteries de la lèpre. Le protocole experimental était celui décrit dans JAYARAMAN, P., […], P.R., MESTER, M. and MESTER, L. Inhibition of the incorporation of ^3H-DOPA in Mycobacterium leprae by Desoxyfructo-serotonin. Biochem. Pharm., 29, 2526,1980.
On a inoculé 5 x 10^6 M. leprae par tube; le milieu était un tampon phosphate à pH 6,8. La quantité de 3H-DOPA était de 1 µ. Ci/tube.
Protocole: Chaque tube de 0,5 ml est inocule de 5 x 10^6 M. leprae et de 1 µ Ci de ^3H-DOPA. Après 6 heures, I'incorporation de la DOPA radioactive est enregistrée en DPM selon la technique utilisée dans JAYARAMAN, P., […], P.R., MESTER, M. and MESTER, L. Inhibition of the Incorporation of ^3H-DOPA in Mycobacterium leprae by Desoxyfructo-serotonin. Biochem. Pharm., 29,2526,1980.

rat = assay: Anti-stress activity: restraint ulcer in the rat; type: in vivo; conditions: 174 mg/kg i.p.
Description: BONFILS, S., LIEFOOGHE, GK, ROSSI, G. and LAMBLING, A. L'ulcère de contrainte du Rat blanc. Modifications de la fréquence lesionnelle par différents precedes opératoires et pharmacodynamiques. C.R. Soc. Biol., 151, 1149, 1957.
BONFILS, S., ROSSI, G., LIEFOOGHE, G. and LAMBLING, A., Ulcère experimental de contrainte, I. Méthodes, fréquence des lesions, modifications par certains precedes techniques et pharmacologiques. Rev. franç. Etudes clin. biol., 4,146, 1959.

souris [1] = assay: Anti-stress activity: milk-induced leucocytosis; type: in vivo; conditions: 174 mg/kg i.p.; 0,1 ml de lait s.c. before treatment; lait seulement 23866 ± 214
souris [2] = assay: General pharmacological profile: respiratory rate; type: in vivo; conditions: souris
Description: Activite motrice spontanée: MODIGH, K., Central and peripheral effects of 5-hydroxytryptophan on motor activity in mice. Psychopharmacologia (Berlin), 23, 48, 1972. Cadence respiratoire: […], S., and VALZELLI, L. Serotonin and cardiovascular system, Chapter 9, in "Serotonin", Elsevier Publ. Co. Amsterdam 1965.
COHEN, Y. and BLANCHARD, P. Influence de la chelation du calcium sur les effets tensionnels de la sérotonine chez le chien. J. Physiol., 52, 569,1960.
BRAUNWALD, E. Control of myocardial oxygen consumption: Physiologic and clinical considerations. Am. J. Cardiol., 27 (4), 416,1971.

Tension sanguine = assay: Cardiovascular activity: blood pressure; type: in vivo
Description: Le protocole experimental était celui décrit dans "Sugar Derivatives of Indolamines. part V: Cardiovascular Effects and "Anti-stress" Activity of Desoxyfructose Derivative of Serotonin and 5-Metho-xy- tryptamin", L. Mester, M. Mester, K.P. Bhargava, C. Labrid, G. Dureng and M. Cheucle, THROMBOSIS […], 15,245,1979.

souris [3] = assay: Rotarod test
Method: Les mesures ont été faites a 15, 30 et 60 minutes après I'administration par voie intrapéritonéale (i.p.) a des souris.

souris [4] = assay: Anti-stress activity: swimming endurance; type: in vivo; conditions: 174 mg/kg i.p., souris observed up to 540 min; témoins 385 ± 31 min
Method: Au tableau 4, la lettre N designe le nombre d'animaux (souris). Un astérisque indique une activite importante. Deux astérisques indiquent une possibilité d'activité positive. Dans I'essai d'endurance a la nage, on a observe les souris jusqu'à 540 minutes, la durée moyenne de nage pour les souris témoins étant de 385 ± 31 minutes.
(N) - représente le nombre d'animaux * - activité importante ** - activite positive possible Pour I'endurance a la nage, les souris ont été observées jusqu'à 540 min, la durée moyenne de nage chez les souris témoins était de 385 + 31 min. *** - La leucocytose a été induite par 0,1 ml de lait (sous-cutanée) avant traitement avec le medicament.

[5] = 10 mg par voie cérébroventriculaire

O=C(O)C(Cc1c[nH]c2ccc(O)cc12)NCC1(O)OCC(O)C(O)C1O (stereo not shown) [DF-5HTP, N-1-desoxyfructo-5-hydroxytryptophane]
activité inhibitrice sur la DOPA-oxydase (coloration du milieu mesurée a 540 mµ) (DOPA-oxydase): comparable a celle de la DFS | incorporation de 3H-DOPA par M. Leprae (M. Leprae; 1 µg/ml, Armadillo M.Leprae N°2275/5, témoins 5977): 2922 DPM | incorporation de 3H-DOPA par M. Leprae (M. Leprae; 1 µg/ml, Armadillo M.Leprae N°2275/5 Tués par la chaleur, témoins 915): 1008 DPM | incorporation de 3H-DOPA par M. Leprae (M. Leprae; 1 µg/ml, Armadillo M.Leprae N°2457/103, témoins 4215): 2555 DPM | incorporation de 3H-DOPA par M. Leprae (M. Leprae; 1 µg/ml, Armadillo M.Leprae N°2457/103 Tués par la chaleur, témoins 2855): 2660 DPM | incorporation de 3H-DOPA par M. Leprae (M. Leprae; 5 µg/ml, Armadillo M.Leprae N°2275/5, témoins 5977): 1599 DPM | incorporation de 3H-DOPA par M. Leprae (M. Leprae; 5 µg/ml, Armadillo M.Leprae N°2275/5 Tués par la chaleur, témoins 915): 732 DPM | incorporation de 3H-DOPA par M. Leprae (M. Leprae; 5 µg/ml, Armadillo M.Leprae N°2457/103, témoins 4215): 1930 DPM | incorporation de 3H-DOPA par M. Leprae (M. Leprae; 5 µg/ml, Armadillo M.Leprae N°2457/103 Tués par la chaleur, témoins 2855): 2675 DPM | Effet anti-ulcère chez le rat (18 heures sous contrainte) Indice d'Ul-cération (rat; témoin 34): 10^**(4) | Effet anti-ulcère chez le rat (18 heures sous contrainte) % Ul-cération (rat; témoin 90): 50% | Effet sur la leu-cocytose induite par le lait Moyenne T.L.C./Cmm (souris [1]): 10468 ± 130 (8) /Cmm | Cadence respira-toire (souris [2]; 100 mg/kg (ip), Tableau 2): sans effet | Cadence respira-toire (souris [2]; 174 mg/kg (ip)): sans effet | Tension sanguine Durée (Tension sanguine; [5]): 50 min | Tension sanguine Mesure à (Tension sanguine; [5]): 1 min | Tension sanguine Pic (Tension sanguine; [5]): 5 min | Tension sanguine Durée (Tension sanguine; 100 mg par voie intraveineuse): 30 min | Tension sanguine Mesure à (min) (Tension sanguine; 100 mg par voie intraveineuse): immé-diat | Tension sanguine Pic (Tension sanguine; 100 mg par voie intraveineuse): 1 min | Essai à la tige Rotarod: Défaut de coordination musculaire observé (Nbre de souris) (souris [3]; 100 mg/kg (ip), 15 min): 0/5 | Essai à la tige Rotarod: Défaut de coordination musculaire observé (Nbre de souris) (souris [3]; 100 mg/kg (ip), 30 min): 0/5 | Essai à la tige Rotarod: Défaut de coordination musculaire observé (Nbre de souris) (souris [3]; 100 mg/kg (ip), 60 min): 0/5 | Essai à la tige Rotarod: Défaut de coordination musculaire observé (Nbre de souris) (souris [3]; 174 mg/kg (ip), 15 min): 0/5 | Essai à la tige Rotarod: Défaut de coordination musculaire observé (Nbre de souris) (souris [3]; 174 mg/kg (ip), 30 min): 0/5 | Essai à la tige Rotarod: Défaut de coordination musculaire observé (Nbre de souris) (souris [3]; 174 mg/kg (ip), 60 min): 0/5 | Performance à l'essai Rotarod Moyenne (Sec) (souris [3]; 174 mg/kg i.p., témoin 11,3 ± 3,1): 16,4 ± 2,4 (30) Sec | Endurance à la nage % d'augmentation (souris [4]): 40^** %
